For one assay, the system named is SLA-2*05:02. Put plainly: Peptide-MHC class I complex stability, scintillation proximity assay (SPA). Further details: species or system pig. The note with it: biotinylated recombinant SLA heavy chain, 125I-β2m, excess unlabeled β2m, read every 40 min, number only if t1/2 ≥ 0.5 h, '-' = not stably binding. As to the method:
(§1) The stability of the selected 198 peptides in complex with relevant SLA class I molecules and β2m was determined using a scintillation proximity assay (SPA), as previously described (Harndahl et al., [2011]). Briefly, biotinylated recombinant MHC class I heavy chains were attached to a streptavidin-coated scintillation microplate together with iodinated (^125I) β2m and candidate peptide resulting in a scintillation signal, which was consecutively measured every 40 min by a scintillation plate counter. The duration of this signal is directly correlated to the stability of the peptide-MHC class I-β2m complex under dissociating conditions and in the presence of excess unlabeled β2m (Harndahl et al., [2011]). Peptides with a half-life ≥ 0.5 h were selected as stable binders.

The test system of the next assay is SLA-3*04:01. The description is as above. The note with it: biotinylated recombinant SLA heavy chain, 125I-β2m, excess unlabeled β2m, read every 40 min, number only if t1/2 ≥ 0.5 h, '-' = not stably binding. Set-up: species or system pig. As to the method:
as §1

Another assay deals with SLA-2*04:01. The description is as above. Further details: species or system pig. The note with it: biotinylated recombinant SLA heavy chain, 125I-β2m, excess unlabeled β2m, read every 40 min, number only if t1/2 ≥ 0.5 h, '-' = not stably binding. As to the method:
as §1

The next assay has as its system PBMCs. Put plainly: In vitro peptide stimulation of porcine PBMCs, IFN-γ release assay (ELISA). In kind it is cell-based, pig. Set-up: key to T cell response: “x” indicates that a response was found to this given peptide at least once. Conditions: PBMCs of immunized pigs, 2 × 10^5/well, 5 μg/ml peptide, 67.5–70.0 h, IFN-γ ELISA; response = 2-fold increase vs day -2 and at least 25 pg/ml IFN-γ, found at least once; SLA restriction not included. Background: In an ELISA, binding on a coated surface is turned into a signal by an enzyme label.

Take “AIAKNLPELI [IDO3, porcine IDO-derived 9-11mer peptide]”: in the assay with SLA-2*05:02, the “Binder (t1/2 ≥ 0.5 h): half-life of peptide-SLA-2*05:02 complex” value (“Binder … of peptide-SLA-2*05:02 complex” for short) worked out at 54 min.
As for “ANRISAFGY [RhoC2, porcine RhoC-derived 9-11mer peptide]”, in the assay with SLA-3*04:01, the “Binder (t1/2 ≥ 0.5 h): half-life of peptide-SLA-3*04:01 complex” value (shortened to “Binder … of peptide-SLA-3*04:01 complex”) is on record as “- (t1/2 (hours) is listed for each of the stably binding peptides (t1/2 ≥ 0.5 h))”. Besides, the “Binder (t1/2 ≥ 0.5 h): half-life of peptide-SLA-2*04:01 complex” value (from here on “Binder … of peptide-SLA-2*04:01 complex”) in the assay on SLA-2*04:01 came out at 156 min. Also, the T cell response entry with PBMCs is “x”.
Turning to “DIRKVLPRNI [IDO10, porcine IDO-derived 9-11mer peptide]”, the “Binder … of peptide-SLA-2*05:02 complex” value in the assay on SLA-2*05:02 is “- (t1/2 (hours) is listed for each of the stably binding peptides (t1/2 ≥ 0.5 h))”.
“EELPHPYDAWI [IDO14, porcine IDO-derived 9-11mer peptide]”: the “Binder … of peptide-SLA-2*05:02 complex” value in the assay with SLA-2*05:02 was “- (t1/2 (hours) is listed for each of the stably binding peptides (t1/2 ≥ 0.5 h))”.
Consider “ELAKMKQEP [RhoC15, porcine RhoC-derived 9-11mer peptide]”, for which, in the assay on SLA-2*05:02, the “Binder … of peptide-SLA-2*05:02 complex” value was “- (t1/2 (hours) is listed for each of the stably binding peptides (t1/2 ≥ 0.5 h))”.
For “ELPHPYDAWI [IDO18, porcine IDO-derived 9-11mer peptide]”, the “Binder … of peptide-SLA-2*05:02 complex” value in the assay with SLA-2*05:02 was found to be 348 min.
In the case of “ENIPEKWTP [RhoC17, porcine RhoC-derived 9-11mer peptide]”, in the assay on SLA-2*05:02, the “Binder … of peptide-SLA-2*05:02 complex” value amounted to 66 min.
As for “ENRGTGGTNVI [IDO19, porcine IDO-derived 9-11mer peptide]”, the “Binder … of peptide-SLA-2*05:02 complex” value in the assay with SLA-2*05:02 was “- (t1/2 (hours) is listed for each of the stably binding peptides (t1/2 ≥ 0.5 h))”.
“FLVSLLVEI [IDO25, porcine IDO-derived 9-11mer peptide]”: the “Binder … of peptide-SLA-2*05:02 complex” value in the assay on SLA-2*05:02 is on record as “- (t1/2 (hours) is listed for each of the stably binding peptides (t1/2 ≥ 0.5 h))”.
As for “HKALEVFHQI [IDO36, porcine IDO-derived 9-11mer peptide]”, in the assay on SLA-2*05:02, the “Binder … of peptide-SLA-2*05:02 complex” value is on record as “- (t1/2 (hours) is listed for each of the stably binding peptides (t1/2 ≥ 0.5 h))”.
Same read-out and setting: in the case of “HLQIVTKYI [IDO38, porcine IDO-derived 9-11mer peptide]” it was 30 min; in that of “HLQIVTKYIVI [IDO39, porcine IDO-derived 9-11mer peptide]”, 36 min.
As for “IAIAKNLPELI [IDO44, porcine IDO-derived 9-11mer peptide]”, the “Binder … of peptide-SLA-2*05:02 complex” value in the assay on SLA-2*05:02 is reported as “- (t1/2 (hours) is listed for each of the stably binding peptides (t1/2 ≥ 0.5 h))”.
For “KALEVFHQI [IDO45, porcine IDO-derived 9-11mer peptide]”, the “Binder … of peptide-SLA-2*05:02 complex” value in the assay on SLA-2*05:02 was “- (t1/2 (hours) is listed for each of the stably binding peptides (t1/2 ≥ 0.5 h))”.
Turning to “KLSEKLGLPPI [IDO56, porcine IDO-derived 9-11mer peptide]”, the “Binder … of peptide-SLA-2*05:02 complex” value in the assay on SLA-2*05:02 is “- (t1/2 (hours) is listed for each of the stably binding peptides (t1/2 ≥ 0.5 h))”.
Turning to “KNKRRRGCPI [RhoC31, porcine RhoC-derived 9-11mer peptide]”, the “Binder … of peptide-SLA-3*04:01 complex” value in the assay on SLA-3*04:01 is 42 min. Also, in the assay on PBMCs, the T cell response entry was “x”.
For “KNMDILFSF [IDO58, porcine IDO-derived 9-11mer peptide]”, the “Binder … of peptide-SLA-3*04:01 complex” value with SLA-3*04:01 is “- (t1/2 (hours) is listed for each of the stably binding peptides (t1/2 ≥ 0.5 h))”. In addition, the “Binder … of peptide-SLA-2*04:01 complex” value in the assay with SLA-2*04:01 worked out at 480 min. For the same sequence, in the assay on PBMCs, the T cell response entry was “x”.
Turning to “KVIPTLFNAI [IDO61, porcine IDO-derived 9-11mer peptide]”, the “Binder … of peptide-SLA-2*05:02 complex” value with SLA-2*05:02 is recorded as “- (t1/2 (hours) is listed for each of the stably binding peptides (t1/2 ≥ 0.5 h))”.
Turning to “LSEKLGLPPI [IDO72, porcine IDO-derived 9-11mer peptide]”, in the assay on SLA-2*05:02, the “Binder … of peptide-SLA-2*05:02 complex” value is “- (t1/2 (hours) is listed for each of the stably binding peptides (t1/2 ≥ 0.5 h))”.
On to “LSYPDTDVI [RhoC35, porcine RhoC-derived 9-11mer peptide]”, for which the “Binder … of peptide-SLA-2*05:02 complex” value with SLA-2*05:02 is reported as “- (t1/2 (hours) is listed for each of the stably binding peptides (t1/2 ≥ 0.5 h))”. Moreover, the “Binder … of peptide-SLA-2*04:01 complex” value with SLA-2*04:01 was “- (t1/2 (hours) is listed for each of the stably binding peptides (t1/2 ≥ 0.5 h))”.
Regarding “MAAIRKKLVI [RhoC40, porcine RhoC-derived 9-11mer peptide]”, the “Binder … of peptide-SLA-2*05:02 complex” value in the assay with SLA-2*05:02 is 30 min.
For “MQRLAHLVL [IDO78, porcine IDO-derived 9-11mer peptide]”, the “Binder … of peptide-SLA-3*04:01 complex” value in the assay with SLA-3*04:01 is given as “- (t1/2 (hours) is listed for each of the stably binding peptides (t1/2 ≥ 0.5 h))”.
On the same count and under the same terms, in the case of “MTYKNMDILFS [IDO82, porcine IDO-derived 9-11mer peptide]” it was “- (t1/2 (hours) is listed for each of the stably binding peptides (t1/2 ≥ 0.5 h))”.
For the sequence “MVSLRNYHLQI [IDO84, porcine IDO-derived 9-11mer peptide]”, in the assay on SLA-2*05:02, the “Binder … of peptide-SLA-2*05:02 complex” value is “- (t1/2 (hours) is listed for each of the stably binding peptides (t1/2 ≥ 0.5 h))”.
For the sequence “NKRRRGCPI [RhoC41, porcine RhoC-derived 9-11mer peptide]”, the “Binder … of peptide-SLA-3*04:01 complex” value in the assay on SLA-3*04:01 was “- (t1/2 (hours) is listed for each of the stably binding peptides (t1/2 ≥ 0.5 h))”.
As to “QEMRTYMPP [IDO101, porcine IDO-derived 9-11mer peptide]”, the “Binder … of peptide-SLA-3*04:01 complex” value in the assay on SLA-3*04:01 was “- (t1/2 (hours) is listed for each of the stably binding peptides (t1/2 ≥ 0.5 h))”.
For the sequence “QRLAHLVLGY [IDO102, porcine IDO-derived 9-11mer peptide]”, the “Binder … of peptide-SLA-3*04:01 complex” value in the assay on SLA-3*04:01 was “- (t1/2 (hours) is listed for each of the stably binding peptides (t1/2 ≥ 0.5 h))”. The “Binder … of peptide-SLA-2*04:01 complex” value in the assay on SLA-2*04:01 was “- (t1/2 (hours) is listed for each of the stably binding peptides (t1/2 ≥ 0.5 h))”.
On to “RKNKRRRGCPI [RhoC44, porcine RhoC-derived 9-11mer peptide]”, for which the “Binder … of peptide-SLA-3*04:01 complex” value with SLA-3*04:01 is “- (t1/2 (hours) is listed for each of the stably binding peptides (t1/2 ≥ 0.5 h))”.
As for “RLRPLSYPD [RhoC45, porcine RhoC-derived 9-11mer peptide]”, the “Binder … of peptide-SLA-3*04:01 complex” value in the assay with SLA-3*04:01 is “- (t1/2 (hours) is listed for each of the stably binding peptides (t1/2 ≥ 0.5 h))”.
In the case of “RNFLHSLES [IDO105, porcine IDO-derived 9-11mer peptide]”, the “Binder … of peptide-SLA-3*04:01 complex” value in the assay with SLA-3*04:01 amounted to 882 min. For the same sequence, in the assay on PBMCs, the T cell response result is “x”.
Regarding “RNFLHSLESG [IDO106, porcine IDO-derived 9-11mer peptide]”, in the assay on SLA-3*04:01, the “Binder … of peptide-SLA-3*04:01 complex” value came to 30 min.
Take “RNFLHSLESGP [IDO107, porcine IDO-derived 9-11mer peptide]”: the “Binder … of peptide-SLA-3*04:01 complex” value with SLA-3*04:01 turned out to be 42 min. In the assay with PBMCs, the T cell response result is “x”.
In the case of “RNIAIPYCKL [IDO108, porcine IDO-derived 9-11mer peptide]”, in the assay with SLA-3*04:01, the “Binder … of peptide-SLA-3*04:01 complex” value is “- (t1/2 (hours) is listed for each of the stably binding peptides (t1/2 ≥ 0.5 h))”.
The same measure, in the same setting: in the case of “RNIAIPYCKLS [IDO109, porcine IDO-derived 9-11mer peptide]” it was “- (t1/2 (hours) is listed for each of the stably binding peptides (t1/2 ≥ 0.5 h))”.
Take “RNYHLQIVT [IDO110, porcine IDO-derived 9-11mer peptide]”: the “Binder … of peptide-SLA-3*04:01 complex” value in the assay with SLA-3*04:01 is “- (t1/2 (hours) is listed for each of the stably binding peptides (t1/2 ≥ 0.5 h))”. The “Binder … of peptide-SLA-2*04:01 complex” value in the assay on SLA-2*04:01 is on record as “- (t1/2 (hours) is listed for each of the stably binding peptides (t1/2 ≥ 0.5 h))”.
For the sequence “RNYHLQIVTK [IDO111, porcine IDO-derived 9-11mer peptide]”, the “Binder … of peptide-SLA-3*04:01 complex” value with SLA-3*04:01 was “- (t1/2 (hours) is listed for each of the stably binding peptides (t1/2 ≥ 0.5 h))”. In the assay on SLA-2*04:01, the “Binder … of peptide-SLA-2*04:01 complex” value is reported as “- (t1/2 (hours) is listed for each of the stably binding peptides (t1/2 ≥ 0.5 h))”.
For “RNYHLQIVTKY [IDO112, porcine IDO-derived 9-11mer peptide]”, the “Binder … of peptide-SLA-3*04:01 complex” value in the assay with SLA-3*04:01 was 30 min. Moreover, the “Binder … of peptide-SLA-2*04:01 complex” value with SLA-2*04:01 came out at 216 min.
As for “VLSKGDALL [IDO127, porcine IDO-derived 9-11mer peptide]”, the “Binder … of peptide-SLA-2*05:02 complex” value with SLA-2*05:02 is recorded as “- (t1/2 (hours) is listed for each of the stably binding peptides (t1/2 ≥ 0.5 h))”.
Regarding “VPTVFENYI [RhoC54, porcine RhoC-derived 9-11mer peptide]”, the “Binder … of peptide-SLA-2*05:02 complex” value in the assay with SLA-2*05:02 is 108 min.
As to “YDRLRPLSY [RhoC56, porcine RhoC-derived 9-11mer peptide]”, the “Binder … of peptide-SLA-3*04:01 complex” value in the assay on SLA-3*04:01 is listed as “- (t1/2 (hours) is listed for each of the stably binding peptides (t1/2 ≥ 0.5 h))”.
Consider “YDRLRPLSYPD [RhoC57, porcine RhoC-derived 9-11mer peptide]”, for which the “Binder … of peptide-SLA-3*04:01 complex” value in the assay with SLA-3*04:01 is reported as “- (t1/2 (hours) is listed for each of the stably binding peptides (t1/2 ≥ 0.5 h))”.
For “YVPTVFENYI [RhoC61, porcine RhoC-derived 9-11mer peptide]”, the “Binder … of peptide-SLA-2*05:02 complex” value with SLA-2*05:02 turned out to be 42 min.

The values above are taken from PMC4584933, “Establishing the pig as a large animal model for vaccine development against human cancer” (Frontiers in Genetics, 2015).
